Test results: PubChem BioAssay (NCI)
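Five concentrations, 48 hours, 96-well plates. TGI denotes the concentration required for complete inhibition of growth.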

Key:
Experiment in all cases: NCI-60 cell line screen, 48 h
[1] = tested on: SNB-78 CNS
[2] = tested on: SN12K1 renal
[3] = tested on: DMS 273 small cell lung

Measured: TGI

C=CC1(C)CC(=O)C2(O)C(C)(O1)C(OC(C)=O)C(O)C1C(C)(C)CCC(O)C12C (stereo not drawn)
> 150 µM: all assays above
